“Also recorded” adds a separate entry of the source. Where no end group is shown, it is not given here.
Experiments:
[1] = tested on: primary ovarian cancer cells; assay: Flow cytometry of MHC class I, HLA-A2 and ICAM-1 on primary ovarian tumor cells after IFN-γ; assay type: cell-based, human; details: 500 U/ml for 48 hrs
Description: Briefly, tumor cells were harvested with 0.25 percent trypsin in HBBS (Gibco, Grand Island, N.Y.) and washed once in complete medium. Cell suspensions were counted and distributed into 12×75 mm tubes at 5×10^5 cells/tube. Mouse monoclonal antibodies [anti-HLA class I (MAb W6/32); anti-HLA-A2 (BB7-2) and anti-HLA Class II (MAb CR3-43) Accurate Chemical and Scientific Corporation, Westbury, N.Y.); and anti-ICAM-1 (MAb LB-2; Becton Dickinson)] were diluted in cold assay buffer (PBS, pH 7.2, supplemented with 0.1% FCS) and added in a 50-μl volume. A mouse IgG preparation (MAb IgG2a; Becton Dickinson) was used as negative control. Tumor cells were analyzed by FACScan (Becton Dickinson) utilizing Cell Quest software (Becton Dickinson).
In contrast, MHC class II molecule expression was negligible in all 3 primary tumor cell lines tested (data not shown).

[2] = tested on: primary ovarian cancer cell lines; assay: Real time PCR of CA125 and TADG-12 mRNA after IFN-γ; assay type: cell-based, human; details: after exposure to IFN-γ, data not shown
Description: Importantly, because tissue digestion and prolonged in vitro cell culture may potentially alter CA125 and TADG-12 antigen expression, primary ovarian cancer cell lines were evaluated before and after several in vitro passages for CA125 and TADG-12 expression by real time PCR and flow cytometry. Briefly, RNA extraction was performed on autologous primary ovarian cancer cell lines when tumor cells were 50% to 80% confluent after no passages (i.e., P0) and up to a maximum of twenty passages in vitro. RNA isolation was performed using TRIzol Reagent (Invitrogen) according to the manufacturer's instructions. To verify integrity, 4 μg of RNA from each sample was run in 1% agarose gel using 18S+28S Ribosomal RNA (Sigma) as positive control. Briefly, five μg of total RNA from each sample was reverse-transcribed using SuperScript III first strand cDNA synthesis (Invitrogen). […] Quantitative-RT-PCR was performed with an ABI Prism 7000 Sequence Analyzer using the manufacturer's recommended protocol (Applied Biosystems, Foster City, Calif.) to evaluate expression of CA125 and TADG-12 in primary tumors. […] Primers specific for 18S ribosomal RNA and empirically determined ratios of 18S competimers (Applied Biosystems) were used to control for the amount of cDNA generated from each sample. […]

[3] = tested on: autologous primary ovarian cancer cells endogenously expressing TADG-12; assay: 51Cr-release cytotoxicity against autologous ovarian cancer cells expressing TADG-12; assay type: cell-based, human
Description: FIG. 9. […] A representative experiment from patient 1 is shown.
FIG. 10. CD8^+ CTL recognition of autologous ovarian cancer cells (i.e., K ova) endogenously expressing TADG-12 by TADG-12 P5-stimulated lymphocytes. […] A representative experiment from patient 1 is shown.
Cryopreserved peripheral blood leukocytes (PBL) from patient # 3, harboring advanced stage ovarian cancer, have been used for the generation of DC. Monocyte-derived DC were cultured in AIM-V (Gibco-BRL) supplemented with GM-CSF and IL-4 (1). After 5 days' culture, DC maturation was induced by addition of TNFα, IL-1β and PGE2 (1). Mature DC were pulsed for 1-2 hr at 37° C. with 50 μg/ml of all 8 TADG-12-derived peptides, and washed twice before culture with PBL at a responder:stimulator ratio of 30:1. The culture medium was AIM-V plus 5% human AB serum (Gemini Bioproducts). No IL-2 was added. After 7 days, responder T cells were collected and restimulated with peptide-pulsed DC. For the second and third DC stimulations, the medium was supplemented with 50-100 U/ml IL-2, and the culture period extended to 14 days. After the third cycle, CD8+ T cells were recovered by positive selection with anti-CD8 magnetic beads (Dynal). Subsequent restimulations (passages) of CD8+ T cells used peptide-loaded autologous PBL as antigen-presenting cells.

[4] = tested on: autologous unpulsed LCL; assay: 51Cr-release cytotoxicity against unpulsed autologous LCL; assay type: cell-based, human; details: CTL stimulated by CA125 P10-pulsed autologous DC
[5] = tested on: autologous LCL pulsed with CA125-derived peptides; assay: 51Cr-release cytotoxicity of peptide-specific CD8+ T cells against LCL pulsed with CA125 peptides; assay type: cell-based, human; details: CD8+ T cells from a healthy donor, autologous LCL pulsed with 50 μg/ml peptide, 5 hour 51Cr-release
Description: Dendritic cells were loaded with the CA125 peptides of Table 3 and used to amplify CD8+ T cells cytotoxic against cells displaying the cognate peptide as described in Example 5. The amplified CD8+ T cell lines were tested for cytoxicity against autologous lymphoblastoid cell lines (LCL) pulsed with the CA125 peptide used to amplify the T cells. Cytotoxicity was tested in a 5 hour ^51Cr-release assay against autologous LCL and autologous LCL pulsed with 50 μg/ml peptide (5, 6). […] Natural killer (NK)-sensitive K562 cells were not lysed (data not shown).

[6] = tested on: autologous primary ovarian cancer cells endogenously expressing CA125
Description: Cytotoxicity was tested in a 5 hr ^51Cr-release assay against autologous primary ovarian cancer target cells and unpulsed autologous LCL at different Effector cell: Target cell ratios (E:T). Blocking monoclonal antibody (MAb) against non-polymorphic HLA A, B, and C determinants (W6/32) was also used.
Cytotoxicity was tested in a 5 hr 5 Cr-release assay against autologous primary ovarian cancer target cells and autologous LCL at a 20:1 ratio. Blocking monoclonal antibody against non-polymorphic HLA A, B, and C determinants (W6/32) was also used.
Briefly, viable tumor tissue was mechanically minced in RPMI 1640 to portions no larger than 1-3 mm^3 and washed twice with RPMI 1640. The portions of minced tumor were then placed into 250 ml flasks containing 30 ml of enzyme solution [0.14% collagenase Type 1 and 0.01% DNAse 2000 KU/mg; (Sigma)] in RPMI 1640, and incubated on a magnetic stirring apparatus overnight at 4° C. Enzymatically dissociated tumor was then filtered through 150 μm nylon mesh to generate a single cell suspension. The resultant cell suspension was then washed twice in RPMI 1640 plus 10% FBS (fetal bovine serum). Purity of fresh tumor cultures was tested by morphology, immunochemistry staining and/or flow cytometry with antibodies against cytokeratins. Only cell lines containing more than 99% tumor cells were evaluated in cytotoxicity assays. […]

In the case of “IFN-γ: Cytokine to which primary ovarian tumor cells were exposed (500 U/ml for 48 hrs)”, the “MHC class I, HLA-A2 and ICAM-1 expression levels” value [1] is reported as “markedly up-regulate”, the “expression levels of CA125 and TADG-12 mRNA” value [2] is reported as “did not detect any change” and the “effect of IFN-γ exposure of tumor cells on recognition and killing by peptide-specific CTL” value ([3]; exposure for 48 hrs) is reported as “further increased recognition and killing of autologous ovarian cancer cells; also recorded: significantly increase the cytotoxic activity”.
For YTLDRDSLYV [P10 CA125/10, YTLDrDSLYV], the “cytotoxicity against autologous unpulsed LCL” value [4] was “not against autologous unpulsed LCL”.
YLPKSWTIQV [P5 TADG12/10, YLPKsWTIQV] was tested, and the “cytotoxicity against autologous primary ovarian cancer cells endogenously expressing TADG-12” value ([3]; TADG-12 peptides, CTL stimulated by peptide-pulsed DC, 5 hr 51Cr-release, listed as SEQ ID NO: 17) was “consistently lyse autologous ovarian tumor cells expressing TADG-12”.
For “LLMPfTLNFT (LLMPFTLNFT; listed as Homo sapiens) [P9 CA125/10]”, the “% Lysis” value [5] was 0%.
For FMVPFTLNFT [P11 CA125/10, FMVPfTLNFT], the “cytotoxicity against autologous primary ovarian cancer cells endogenously expressing CA125” value [6] was “Unlike peptides 7, 11 and 12, only the CA125 YTLDrDSLYV (SEQ ID NO:10) peptide (P10) was found to be reliably cytotoxic”.
TLLVTGTSRV [P12 CA125/10, TLLVtGTSRV] was tested, and the “cytotoxicity against autologous primary ovarian cancer cells endogenously expressing CA125” value [6] was “Unlike peptides 7, 11 and 12, only the CA125 YTLDrDSLYV (SEQ ID NO:10) peptide (P10) was found to be reliably cytotoxic”.

From US8097242B2, “Target CA125 peptides for cancer immunotherapy” (The Board of Trustees of the University of Arkansas, priority 2006, dated 2012)
